Where no end group is shown, it is not given here.
Experiments:
[1] = tested on: PHB2/REA (Ser39) phosphorylation; assay: Okadaic acid treatment, immunoblotting of PHB2/REA phosphorylation, MCF-7; assay type: cell-based, human
Procedure: FIG. 31-2 is a diagram illustrating that phosphorylation of ERAP1 by PKA and PKB regulates phosphorylation of PHB2/REA (S39) through the PP1α activity. […] (S39) is caused. MCF-7 cells suppressed for expression of PKA by siRNA method, were stimulated with 10 nM E2 for 24 hours. In addition, MCF-7 cells were treated with H-89 for 30 minutes and washed with PBS. Then, immediately, the cells were stimulated with 10 nM E2 for 24 hours. […] Then, immediately, the cells were stimulated with 10 nM E2 for 24 hours. […] MCF-7 cells suppressed for expression of PKCα by siRNA method were treated with 10 μM ERAP1 peptide. Then, immediately, the cells were stimulated with 10 nM E2 for 24 hours. The cells were fractionated into cytoplasm and nuclear fractions by specific gravity centrifugation.

[2] = molecular target: T1, binding of Flag-ERAP1 and His-PHB2/REA (Homo sapiens, UniProt Q99623); assay: Ni-resin pull-down and Western of His-PHB2/REA with Flag-ERAP1 cell lysate; details: pull-down, each concentration
T1 construct: human PHB2 (residues 77-244); thioredoxin (TrxA) (N); TEV protease cut site (N); made in house; host or cells: PHB2: Escherichia coli BL21 star (DE3); Flag-ERAP1: lysate of transiently transfected COS-7 cells
T1 sequence (Q99623 77-244): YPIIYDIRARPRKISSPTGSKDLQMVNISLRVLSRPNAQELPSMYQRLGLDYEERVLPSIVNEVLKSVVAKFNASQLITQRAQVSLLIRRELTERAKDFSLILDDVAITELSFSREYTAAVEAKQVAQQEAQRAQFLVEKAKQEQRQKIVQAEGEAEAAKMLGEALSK
Procedure: FIG. 2 is a diagram illustrating the results of immunoblotting analysis by which binding of the ERAP1-peptide to PHB2 was evaluated. The cell lysate of the COS-7 cells temporarily transfected with the Flag-tagged ERAP1 plasmid was incubated for 1 hour together with 6×His-tagged recombinant PHB2 protein (10 μg) and the ERAP1-peptide, the ERAP1-scramble peptide, or the ERAP1-mutant peptide in each concentration shown in the figure. Then, His-PHB2 was subjected to pull-down with Ni-NTA agarose (Ni-resin).
The partial sequence of human PHB2 (residues 77-244) was cloned into NcoI and XhoI sites of pTAT6 expression vector (see gift by Dr. Marko Hyvonen, University of Cambridge.: Peranen J, et al., (1996). Anal Biochem. 236, 371-373.) so as to become inframe with the hexahistidine tag, thioredoxin (TrxA) and TEV protease cut site (TEV site) at the amino terminal. The recombinant protein was expressed in Escherichia coli BL21 star (DE3) cell line (Invitrogen, Carlsbad, Calif.), and purified using Hi-Trap Kit (GE Healthcare). Finally, the recombinant protein was purified according to the protocol of the supplier using superdex 200 gel filtration column (GE Healthcare) with high performance liquid chromatography (HPLC). […]

[3] = tested on: PHB2/REA localization in MCF-7 cells; assay: Nuclear translocation of PHB2/REA (fractionation, immunoblotting, immunostaining); assay type: cell-based, human; details: 1 hour to 24 hours after administration
Procedure: FIG. 3-1 is a diagram illustrating that ERAP1-peptide treatment promotes nuclear translocation of PHB2. […] MCF-7 cells were stimulated for 24 hours with 10 μM ERAP1-peptide and/or 10 nM E2. The cells were fractioned into mitochondria, cytoplasm, and nuclear fractions by specific gravity centrifugation. Then, each fraction was subjected to immunoblotting analysis using an anti-ERAP1 antibody and an anti-PHB2 antibody. PRDX3, α/β-Tublin (Tublin) and lamin B are markers for mitochondria, cytoplasm, and nuclear fractions, respectively (upper panel). The protein content of each fraction was evaluated with Coomassie-stained SDS-PAGE gel (lower panel). […] KPL-3C cells were treated for 24 hours with 10 μM HA-tagged ERAP1-peptide and/or 10 nM E2. Then, the cells were fractionated into cytoplasm and nuclear fractions by specific gravity centrifugation. Then, which fraction was immunoprecipitated with anti-ERα antibody, an anti-ERAP1 antibody or an anti-PHB2 antibody. Then, immunoblotting was performed with each antibody shown in the figure (an anti-ERAP1 antibody, an anti-ERα antibody, an anti-PHB2 antibody and an anti-HA antibody (Peptide)). α/β-Tubulin (Tubulin) and Lamin B are markers for cytoplasm and nuclear fractions, respectively.
FIG. 4-1 is a diagram illustrating that the ERAP1-peptide promotes nuclear translocation of PHB2. (A) The upper panel illustrates representative images of stained immune cells, showing the intracellular localization of PHB2. MCF-7 cells were treated with 10 μM ERAP1-peptide or ERAP1-scramble peptide. Subsequently, the cells were treated with 10 nM E2. After the immobilization, the cells were subjected to immunofluorescent staining using an anti-PHB2 antibody and DAPI (for discriminating the nucleus).
FIG. 4-2 is a diagram illustrating that the ERAP1-peptide promotes nuclear translocation of PHB2. (B) is a diagram illustrating the results of immunoblotting analysis by which the intracellular localization of PHB2 was detected, MCF-7 cells were treated with the ERAP1-peptide or the ERAP1-scramble peptide. Subsequently immediately, the cells were treated with 10 nM E2. The cells were fractionated into cytoplasm and nuclear fractions after 1 hour or 24 hours. Each fraction was immunoprecipitated with anti-ERα antibody, an anti-ERAP1 antibody or a PH82 antibody. […]
MCF-7 cells were seeded in an 8-well chamber (Laboratory-Tek II Chamber Slide System, Nalgen Nunc International, Naperville, Ill., USA) in 5×10^4 cells/well, and cultured under estrogen-free condition for 24 hours. […] The fluorescence image was obtained under Olympus IX71 microscope (Tokyo, Japan). […]

[4] = tested on: transcriptional activity of ERα (ERE); assay: ERE-luciferase reporter assay in MCF-7 cells; assay type: cell-based, human; details: 10 nM E2 24 hours
Procedure: FIG. 3-2 is a diagram illustrating promotion effect of PHB2 nuclear translocation and suppression effect of the transcriptional activation of ER by ERAP1-peptide treatment. (C) illustrates representative images of stained immune cells, showing the localization of the ERAP1-peptide (HA-tagged ERAP1-peptide) and PHB2. MCF-7 cells were treated with 10 μM HA-tagged ERAP1-peptide for 24 hours in the presence or in the absence of 10 nM E2. After the immobilization, the cells were subjected to immunonfluorescent staining using an anti-HA antibody, an anti-PHB2 antibody and DAPI (for discriminating the nucleus). The arrow indicates the nuclear-translocated ERAP1-peptide. […] Then, immediately, the cells were stimulated with 10 nM E2 for 24 hours. TAM indicates the tamoxifen treatment.
FIG. 3-3 is as diagram illustrating the results of the luciferase assay by which the inhibition effect of the ERAP1-peptide was evaluated. MCF-7 cells temporarily transfected with an ERE-luciferase reporter vector (F) or an AP-1-luciferase reporter vector (F) were treated with the ERAP1-peptide, the scramble peptide or the mutant peptide in the concentrations shown in the […]. Then, immediately, the cells were stimulated with 10 nM E2 for 24 hours. TAM indicates the tamoxifen treatment.
FIG. 4-3 is a diagram illustrating that the ERAP1-peptide promotes nuclear translocation of PHB2. (C) and (D) are figures that show the results of the luciferase assay by which the inhibition effect of the ERAP1-peptide on the ERα transcriptional activity was evaluated. MCF-7 cells temporarily transfected with an ERE-luciferase reporter vector (C) or an AP-1-luciferase reporter vector (D) were treated with the ERAP1-peptide in the concentrations shown in the figure or 10 nM tamoxifen. Then, immediately, the cells were stimulated with 10 nM E2 thr 24 hours.
For ERE reporter assay, MCF-7 cells were transfected with ERE reporter (SABiosciences, Frederick, Md., USA) in accordance with the instruction of the manufacturer. For AP-1 reporter assay, MCF-7 cells were transfected with AP-1 reporter (mouse IL-11 promoter comprising two tandem AP-1 sites subcloned into PGL2-basic vector), c-fos, c-Jun and pRL-TK as an internal standard. After 16 hours from the transfection, the culture medium was exchanged with an assay culture medium (Opti-MEM, 10% FBS, 0.1 mM NEAA, 0.1 mM Sodium pyruvate and 10 μg/ml insulin) After 24 hours from the transfection, the cells were treated with E2 and/or the ERAP1-peptide or 24 hours. The cells were harvested, and the activities of luciferase and Renilla-luciferase were evaluated using Promega dual luciferase reporter assay (Tokyo, Japan). In consideration of the transfection efficiency, all of the data were standardized by the activity of Renilla-luciferase.

| Compound | E2-dependent PHB2/REA phosphorylation (Ser39) ([1]; 20 nM of okadaic acid) | E2-dependent PHB2/REA phosphorylation (Ser39) ([1]; 40 μM) | direct binding to His-PHB2/REA [2] | inhibition of binding of Flag-ERAP1 and His-PHB2/REA [2] | nuclear translocation of PHB2/REA, temporal [3] | transcriptional activity of ERα in ERE [4] |
| --- | --- | --- | --- | --- | --- | --- |
| C=C1[C@@H](O)[C@@H]2O[C@]3(CC[C@H](/C=C/[C@@H](C)[C@@H]4CC(C)=C[C@@]5(O[C@H](C[C@@](C)(O)C(=O)O)CC[C@H]5O)O4)O3)CC[C@H]2O[C@@H]1[C@@H](O)C[C@H](C)[C@H]1O[C@@]2(CCCCO2)CC[C@H]1C [okadaic acid] | recognized to be recovered | confirmed to decrease |  |  |  |  |
| ERAP1-HA-peptide: ERAP1-peptide to which HA tag was added (RRRRRRRRRRRQMLSDLTLQLRQR; also: HA tag added, place not given here) |  |  | directly bound to His-PHB2/REA, depending on the concentration | competitively inhibited | directly bound to PHB2/REA and was nuclear-translocated at the same time | suppressed the transcriptional activity of ERα |
